The values that follow come from patent publication US20020077329A1, “EP4 receptor inhibitors to treat rheumatoid arthritis” (priority 2000, published 2002).

For data set [1], the system named is rats with adjuvant-induced arthritis. In words: Paw edema of adjuvant arthritis (hindpaw volume, hydroplethysmometer). Particulars: for % inhibition contralateral paw / % inhibition ipsilateral paw: paw edema on day 14, perorally day 0 to day 14, compound A and B 60 mg/kg bid, piroxicam 3 mg/kg qd, rofecoxib 1.5 mg/kg bid, n=8. The format is in vivo, male, Sprague-Dawley rats. The procedure: (§1) Arthritis was induced in male, Sprague-Dawley rats (115-145 g, Japan SLC Inc., Shizuoka, Japan) on Day 0 by an injection of 300 μg of M. Tuberculosis H37 RA (Difco Laboratories Inc., Detroit, Mich.) in 100 μl of liquid paraffin (Wako Pure Chemical Industries, Ltd., Osaka, Japan) into the right hind footpad (Neuroscience 78: 843-850, 1997) on Day 0.
(§2) EP4 antagonists included within Formula I as described above (compound A and B, 60 mg/kg, bid), piroxicam (Feldene®, 3 mg/kg, qd), rofecoxib (Vioxx®, 1.5 mg/kg, bid), and control vehicle were each suspended in 0.1% methylcellulose (MC) and perorally administered separately in five groups of rats from day 0 to day 14 in a volume of 1 ml per 100 g body weight.
Hindpaw volume was measured by an hydroplethysmometer (Ugo Basile, Comerio, Italy) on Day 0, immediately before adjuvant injection, and on Days 1, 4, 7, 11 and 14 after injection. Paw swelling (%) was calculated as follows (Agents and Actions 34: 63-65, 1991):
swelling (%)={Day X volume (ml)−Day 0 volume (ml)}/Day 0 volume (ml)×100.

For data set [2] the test system is unchanged. In words: Arthritic score in adjuvant arthritis (sum of the score for all four limbs). The format is in vivo, male, Sprague-Dawley rats. The note with it: day 14; perorally day 0 to day 14; compound A and B 60 mg/kg bid, piroxicam 3 mg/kg qd, rofecoxib 1.5 mg/kg bid; n=8. The procedure:
as §1, §2
On Day 14, the arthritic score of each paw was evaluated as described below. The total arthritic score for each animal was the sum of the score for all four limbs (Agents and Actions 27: 356-358, 1989). […]

Marks after values point to notes of the source that are not given here.

As usually defined, the melting point is the temperature of the solid-liquid transition. `CCc1nc2cc(C(F)(F)F)c(Cl)cc2n1-c1ccc(CCN(C(=O)O)S(=O)(=O)c2ccc(C)cn2)cc1.Cl`: the melting point came out at 205.8 °C.

In turn, `CCc1nc2c(C)nc(C)cc2n1-c1ccc(CCOC(=O)NS(=O)(=O)c2ccc(C)cc2)cc1` [Example 227, 2-[4-(2-ethyl-4,6-dimethyl-1H-imidazo[4,5-c]pyridin-1-yl)phenyl]ethyl (4-methylphenyl)sulfonylcarbamate] had a melting point of 158 °C.

Regarding `CCc1nc2c(C)nc(C)nc2n1-c1ccc(CCOC(=O)NS(=O)(=O)c2ccc(C)cc2)cc1` [Example 228, 2-[4-(8-ethyl-2,6-dimethyl-9H-purin-9-yl)phenyl]ethyl (4-methylphenyl)sulfonylcarbamate], the melting point turned out to be 162 °C.

The compound `CCc1nc2cc(C(F)(F)F)c(Cl)cc2n1-c1ccc(C[C@H](C)OC(=O)NS(=O)(=O)c2ccc(C)cc2)cc1` [Example 250, (1S)-2-{4-[6-chloro-2-ethyl-5-(trifluoromethyl)-1H-benzimidazol-1-yl]phenyl}-1-methylethyl (4-methylphenyl)sulfonylcarbamate] came in with a melting point of 200.3 °C.

`CCc1nc2cc(C(C)=O)ccc2n1-c1ccc(CCOC(=O)NS(=O)(=O)c2ccc(C)cc2)cc1` [Example 332, 2-[4-(5-acetyl-2-ethyl-1H-benzimidazol-1-yl)phenyl]ethyl (4-methylphenyl)sulfonylcarbamate] gave a melting point of 188 to 190 °C.

In the case of `CN1C(C(=O)Nc2ccccn2)=C(O)c2ccccc2S1(=O)=O` [Piroxicam, piroxicam], in data set [1], the “% inhibition contralateral paw” value is recorded as 96.2* % and the “% inhibition ipsilateral paw” value was 50.8** %. Moreover, in data set [2], the “% inhibition (arthritic score)” value is recorded as 26.7** %.

Consider `CS(=O)(=O)c1ccc(C2=C(c3ccccc3)C(=O)OC2)cc1` [Rofecoxib, rofecoxib], for which the “edema formation in the ipsilateral paws (result in words)” value in data set [1] (during the entire experimental period (day 0 to day 14), versus disease group untreated with compound) is on record as “weaker activity”. Further, in data set [1], the “% inhibition contralateral paw” value amounted to 25.6% and the “% inhibition ipsilateral paw” value is on record as 37.1* %. For the same compound, the “% inhibition (arthritic score)” value in data set [2] was 18.5** %.
